In US20230286958A1, “PLASMA KALLIKREIN INHIBITORS” (Merck Sharp & Dohme LLC, priority 2020, published 2023):

Legend:
[1] = biological target: human Factor XIa (Homo sapiens (Human), UniProt P03951); experiment: Factor XIa Assay (fluorogenic substrate GPR-AFC); assay type: biochemical; conditions: Factor XIa (FXIa)
[2] = biological target: Human plasma kallikrein (Homo sapiens (Human), UniProt P03952); experiment: Kallikrein Assay (fluorogenic substrate Acetyl-K-P-R-AFC); assay type: biochemical; conditions: Plasma Kallikrein (PKal)
In short: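 Ki is derived from IC50 with the Cheng-Prusoff equation, and IC50 from the inflection point of a four-parameter logistic curve. The rate of AFC release is read with 0.5 nM purified enzyme and […] substrate at room temperature or 37 °C.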

Sequence of Human plasma kallikrein (P03952 391-638): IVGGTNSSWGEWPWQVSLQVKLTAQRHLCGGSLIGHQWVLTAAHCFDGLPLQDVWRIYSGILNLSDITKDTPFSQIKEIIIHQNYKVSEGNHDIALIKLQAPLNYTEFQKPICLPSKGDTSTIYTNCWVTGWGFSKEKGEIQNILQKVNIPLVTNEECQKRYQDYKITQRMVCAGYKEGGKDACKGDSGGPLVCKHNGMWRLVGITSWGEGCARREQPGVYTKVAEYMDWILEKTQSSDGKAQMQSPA
Sequence of Human plasma kallikrein (P03952 20-390 partner): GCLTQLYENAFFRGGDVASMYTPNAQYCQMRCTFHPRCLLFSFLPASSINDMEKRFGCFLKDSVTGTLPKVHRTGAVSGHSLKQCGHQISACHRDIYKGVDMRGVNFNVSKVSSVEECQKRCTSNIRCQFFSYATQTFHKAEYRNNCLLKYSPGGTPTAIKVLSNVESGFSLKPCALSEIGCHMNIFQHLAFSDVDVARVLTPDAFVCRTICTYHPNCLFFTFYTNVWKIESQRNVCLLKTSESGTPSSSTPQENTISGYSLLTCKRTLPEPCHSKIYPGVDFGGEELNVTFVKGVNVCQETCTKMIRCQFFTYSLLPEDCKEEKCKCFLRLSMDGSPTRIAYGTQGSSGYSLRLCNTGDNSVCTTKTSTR
Sequence of human Factor XIa (P03951 388-625 limits assumed): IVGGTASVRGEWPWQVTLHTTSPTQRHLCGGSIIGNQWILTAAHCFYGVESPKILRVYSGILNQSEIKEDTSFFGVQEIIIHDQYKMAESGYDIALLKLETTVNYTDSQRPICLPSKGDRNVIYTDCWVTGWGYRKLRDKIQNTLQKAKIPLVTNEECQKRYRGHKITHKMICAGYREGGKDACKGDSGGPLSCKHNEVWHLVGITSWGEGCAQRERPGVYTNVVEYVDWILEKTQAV
Sequence of human Factor XIa (P03951 19-387 partner limits assumed): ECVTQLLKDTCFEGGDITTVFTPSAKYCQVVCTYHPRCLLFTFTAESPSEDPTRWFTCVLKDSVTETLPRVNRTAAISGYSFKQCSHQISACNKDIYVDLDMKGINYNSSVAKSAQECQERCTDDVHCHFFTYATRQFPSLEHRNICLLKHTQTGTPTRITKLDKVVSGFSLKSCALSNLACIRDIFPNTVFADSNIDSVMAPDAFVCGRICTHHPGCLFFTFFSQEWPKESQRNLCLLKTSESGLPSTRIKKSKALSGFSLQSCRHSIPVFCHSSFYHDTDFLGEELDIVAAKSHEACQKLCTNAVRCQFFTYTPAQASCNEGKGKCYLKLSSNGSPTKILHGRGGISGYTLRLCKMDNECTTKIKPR

SMILES | IC50 [1] | IC50 [2]
Cc1ncc(-c2c(C(F)F)ccc(Cl)c2F)nc1C(=O)Nc1cnn(C(CO)c2ccc(N3CC4CC4C3=O)nc2)c1 (single isomer, unassigned) [Example 163, 6-(3-Chloro-6-(difluoromethyl)-2-fluorophenyl)-N-(1-((S or R)-2-hydroxy-1-(6-((1S,5R or 1R,5S)-2-oxo-3-azabicyclo[3.1.0]hexan-3-yl)pyridin-3-yl)ethyl)-1H-pyrazol-4-yl)-3-methylpyrazine-2-carboxamide] | > 10000 nM | 9.2 nM
Cc1ncc(-c2c(C(F)F)ccc(Cl)c2F)nc1C(=O)Nc1cnn(C(CO)c2cnc(N3C[C@H]4C[C@H]4C3=O)nc2)c1 (single isomer, unassigned) [Example 164, 6-(3-Chloro-6-(difluoromethyl)-2-fluorophenyl)-N-(1-((R or S)-2-hydroxy-1-(2-((1R,5S)-2-oxo-3-azabicyclo[3.1.0]hexan-3-yl)pyrimidin-5-yl)ethyl)-1H-pyrazol-4-yl)-3-methylpyrazine-2-carboxamide] | 4890 nM | 5.4 nM
Cc1ncc(-c2c(C(F)F)ccc(Cl)c2F)nc1C(=O)Nc1cnn(C(CO)c2cnc(N3C[C@H]4C[C@H]4C3=O)nc2)c1 (single isomer, unassigned) [Example 165, 6-(3-Chloro-6-(difluoromethyl)-2-fluorophenyl)-N-(1-((S or R)-2-hydroxy-1-(2-((1R,5S)-2-oxo-3-azabicyclo[3.1.0]hexan-3-yl)pyrimidin-5-yl)ethyl)-1H-pyrazol-4-yl)-3-methylpyrazine-2-carboxamide] | 2050 nM | 20.7 nM
Cc1ncc(-c2c(C#N)ccc(Cl)c2F)nc1C(=O)Nc1cnn(C(CO)c2cnc(N3C[C@H]4C[C@H]4C3=O)nc2)c1 (single isomer, unassigned) [Example 166, 6-(3-Chloro-6-cyano-2-fluorophenyl)-N-(1-((R or S)-2-hydroxy-1-(2-((1R,5S)-2-oxo-3-azabicyclo[3.1.0]hexan-3-yl)pyrimidin-5-yl)ethyl)-1H-pyrazol-4-yl)-3-methylpyrazine-2-carboxamide] | > 10000 nM | 19.7 nM
Cc1c(C(CO)n2cc(NC(=O)c3cncc(-c4c(C(F)F)ccc(Cl)c4F)n3)cn2)cnc(N2C[C@H]3C[C@H]3C2=O)c1C (single isomer, unassigned) [Example 167, 6-(3-Chloro-6-(difluoromethyl)-2-fluorophenyl)-N-(1-([R or S)-1-(4,5-dimethyl-6-((1R,5S)-2-oxo-3-azabicyclo[3.1.0]hexan-3-yl)pyridin-3-yl)-2-hydroxyethyl)-1H-pyrazol-4-yl)pyrazine-2-carboxamide] | 3650 nM | 10.5 nM
C[C@@H](c1cnc(N2C[C@H]3C[C@H]3C2=O)nc1)n1cc(NC(=O)c2nc(-c3c(C(F)F)ccc(Cl)c3F)cnc2C(O)C(F)(F)F)cn1 (single isomer, unassigned) [Example 176, 6-(3-Chloro-6-(difluoromethyl)-2-fluorophenyl)-N-(1-((S)-1-(2-((1R,5S)-2-oxo-3-azabicyclo[3.1.0]hexan-3-yl)pyrimidin-5-yl)ethyl)-1H-pyrazol-4-yl)-3-((S or R)-2,2,2-trifluoro-1-hydroxyethyl)pyrazine-2-carboxamide] | 4550 nM | 5.3 nM
C[C@@H](c1cnc(N2C[C@H]3C[C@H]3C2=O)nc1)n1cc(NC(=O)c2nc(-c3c(C(F)F)ccc(Cl)c3F)cnc2C(O)C(F)(F)F)cn1 (single isomer, unassigned) [Example 177, 6-(3-Chloro-6-(difluoromethyl)-2-fluorophenyl)-N-(1-((S)-1-(2-((1R,5S)-2-oxo-3-azabicyclo[3.1.0]hexan-3-yl)pyrimidin-5-yl)ethyl)-1H-pyrazol-4-yl)-3-((R or S)-2,2,2-trifluoro-1-hydroxyethyl)pyrazine-2-carboxamide] | > 10000 nM | 47.8 nM
[2H]C1([2H])C2CC2C(=O)N1c1ncc([C@H](C)n2cc(NC(=O)c3nc(-c4c(C(F)F)ccc(Cl)c4F)cnc3C)cn2)c(C)n1 (single isomer, unassigned) [Example 178, 6-(3-Chloro-6-(difluoromethyl)-2-fluorophenyl)-3-methyl-N-(1-((S)-1-(4-methyl-2-((1R,5S or 1S,5R)-2-oxo-3-azabicyclo[3.1.0]hexan-3-yl-4,4-d2)pyrimidin-5-yl)ethyl)-1H-pyrazol-4-yl)pyrazine-2-carboxamide] | 4530 nM | 14.2 nM
Cc1cc(N2C[C@H]3C[C@H]3C2=O)ncc1C(C)n1cc(NC(=O)c2nc(-c3c(C(F)F)ccc(Cl)c3F)cnc2CO)cn1 (single isomer, unassigned) [Example 204, 6-(3-Chloro-6-(difluoromethyl)-2-fluorophenyl)-3-(hydroxymethyl)-N-(1-((R or S)-1-(4-methyl-6-((1R,5S)-2-oxo-3-azabicyclo[3.1.0]hexan-3-yl)pyridin-3-yl)ethyl)-1H-pyrazol-4-yl)pyrazine-2-carboxamide] | 2520 nM | 5.9 nM

Stronger by IC50 [1], values ahead:

IC50 [1] | IC50 [2] | SMILES
1820 nM | 0.7 nM | [2H]C1([2H])C2CC2C(=O)N1c1ncc([C@H](C)n2cc(NC(=O)c3nc(-c4c(C(F)F)ccc(Cl)c4F)cnc3C)cn2)c(C)n1 (single isomer, unassigned) [Example 179, 6-(3-Chloro-6-(difluoromethyl)-2-fluorophenyl)-3-methyl-N-(1-((S)-1-(4-methyl-2-((1S,5R or 1R,5S)-2-oxo-3-azabicyclo[3.1.0]hexan-3-yl-4,4-d2)pyrimidin-5-yl)ethyl)-1H-pyrazol-4-yl)pyrazine-2-carboxamide]
765 nM | 18.2 nM | Cc1nc(N2C[C@H]3C[C@H]3C2=O)ncc1C(C)n1cc(NC(=O)c2nc(-c3c(C(F)F)ccc(Cl)c3F)cnc2CO)cn1 (single isomer, unassigned) [Example 195, 6-(3-Chloro-6-(difluoromethyl)-2-fluorophenyl)-3-(hydroxymethyl)-N-(1-((R or S)-1-(4-methyl-2-((1R,5S)-2-oxo-3-azabicyclo[3.1.0]hexan-3-yl)pyrimidin-5-yl)ethyl)-1H-pyrazol-4-yl)pyrazine-2-carboxamide]
282 nM | 0.3 nM | Cc1cc(N2C[C@H]3C[C@H]3C2=O)ncc1C(C)n1cc(NC(=O)c2nc(-c3c(C(F)F)ccc(Cl)c3F)cnc2CO)cn1 (single isomer, unassigned) [Example 203, 6-(3-Chloro-6-(difluoromethyl)-2-fluorophenyl)-3-(hydroxymethyl)-N-(1-((S or R)-1-(4-methyl-6-((1R,5S)-2-oxo-3-azabicyclo[3.1.0]hexan-3-yl)pyridin-3-yl)ethyl)-1H-pyrazol-4-yl)pyrazine-2-carboxamide]
262 nM | 0.5 nM | Cc1nc(N2C[C@H]3C[C@H]3C2=O)ncc1C(C)n1cc(NC(=O)c2nc(-c3c(C(F)F)ccc(Cl)c3F)cnc2CO)cn1 (single isomer, unassigned) [Example 194, 6-(3-Chloro-6-(difluoromethyl)-2-fluorophenyl)-3-(hydroxymethyl)-N-(1-((S or R)-1-(4-methyl-2-((1R,5S)-2-oxo-3-azabicyclo[3.1.0]hexan-3-yl)pyrimidin-5-yl)ethyl)-1H-pyrazol-4-yl)pyrazine-2-carboxamide]
261 nM | 0.4 nM | Cc1c(C(CO)n2cc(NC(=O)c3cncc(-c4c(C(F)F)ccc(Cl)c4F)n3)cn2)cnc(N2C[C@H]3C[C@H]3C2=O)c1C (single isomer, unassigned) [Example 168, 6-(3-Chloro-6-(difluoromethyl)-2-fluorophenyl)-N-(1-((S or R)-1-(4,5-dimethyl-6-((1R,5S)-2-oxo-3-azabicyclo[3.1.0]hexan-3-yl)pyridin-3-yl)-2-hydroxyethyl)-1H-pyrazol-4-yl)pyrazine-2-carboxamide]
110 nM | 0.1 nM | Cc1nc(C(C)n2cc(NC(=O)c3nc(-c4c(C(F)F)ccc(Cl)c4F)cnc3CO)cn2)cnc1N1C[C@H]2C[C@H]2C1=O (single isomer, unassigned) [Example 198, 6-(3-Chloro-6-(difluoromethyl)-2-fluorophenyl)-3-(hydroxymethyl-N-(1-((R or S)-I-(6-methyl-5-((1R,5S)-2-oxo-3-azabicyclo[3.1.0]hexan-3-yl)pyrazin-2-yl)ethyl)-1H-pyrazol-4-yl)pyrazine-2-carboxamide]
52 nM | 0.4 nM | Cc1c(C(C)n2cc(NC(=O)c3nc(-c4c(C(F)F)ccc(Cl)c4F)cnc3CO)cn2)cnc(N2C[C@H]3C[C@H]3C2=O)c1C (single isomer, unassigned) [Example 201, 6-(3-Chloro-6-(difluoromethyl)-2-fluorophenyl)-N-(1-((S or R)-1-(4,5-dimethyl-6-((1R,5S)-2-oxo-3-azabicyclo[3.1.0]hexan-3-yl)pyridin-3-yl)ethyl)-1H-pyrazol-4-yl)-3-(hydroxymethyl)pyrazine-2-carboxamide]
48 nM | 0.2 nM | Cc1nc(C(C)n2cc(NC(=O)c3nc(-c4c(C(F)F)ccc(Cl)c4F)cnc3CO)cn2)cnc1N1C[C@H]2C[C@H]2C1=O (single isomer, unassigned) [Example 197, 6-(3-Chloro-6-(difluoromethyl)-2-fluorophenyl)-3-(hydroxymethyl)-N-(1-((S or R)-1-(6-methyl-5-((1R,5S)-2-oxo-3-azabicyclo[3.1.0]hexan-3-yl)pyrazin-2-yl)ethyl)-1H-pyrazol-4-yl)pyrazine-2-carboxamide]
11 nM | 0.3 nM | Cc1c(C(C)n2cc(NC(=O)c3nc(-c4c(C(F)F)ccc(Cl)c4F)cnc3CO)cn2)cnc(N2C[C@H]3C[C@H]3C2=O)c1C (single isomer, unassigned) [Example 202, 6-(3-Chloro-6-(difluoromethyl)-2-fluorophenyl)-N-(1-((R or S)-1-(4,5-dimethyl-6-((1R,5S)-2-oxo-3-azabicyclo[3.1.0]hexan-3-yl)pyridin-3-yl)ethyl)-1H-pyrazol-4-yl)-3-(hydroxymethyl)pyrazine-2-carboxamide]
